Data on 26 compounds can be found in patent publication US20180155344A1, “TRICYCLIC PIPERIDINE COMPOUNDS” (ACTELION PHARMACEUTICALS LTD, priority 2015, published 2018).

The first assay concerns the target T1, human TPH1 (Homo sapiens, UniProt P17752).
T1 sequence (P17752 1-444): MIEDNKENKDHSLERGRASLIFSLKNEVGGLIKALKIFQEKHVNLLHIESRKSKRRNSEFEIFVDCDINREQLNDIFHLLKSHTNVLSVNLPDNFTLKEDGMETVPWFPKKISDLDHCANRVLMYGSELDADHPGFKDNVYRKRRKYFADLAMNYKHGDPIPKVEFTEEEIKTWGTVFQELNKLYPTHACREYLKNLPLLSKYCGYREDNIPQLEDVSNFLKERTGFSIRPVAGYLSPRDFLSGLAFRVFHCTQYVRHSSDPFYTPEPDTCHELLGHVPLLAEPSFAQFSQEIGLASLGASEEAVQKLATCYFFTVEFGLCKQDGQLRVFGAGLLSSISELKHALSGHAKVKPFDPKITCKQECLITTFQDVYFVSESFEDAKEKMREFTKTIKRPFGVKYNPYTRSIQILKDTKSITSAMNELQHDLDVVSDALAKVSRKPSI
The assay is described as follows: biochemical.
Conditions: not given
An outline of the steps: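 Inhibition is derived from 5-hydroxy-L-tryptophan fluorescence (540 nm emission, 300 nm excitation) after perchloric acid stop, relative to DMSO vehicle. Recombinant full-length human enzyme (40-80 nM) reacts with 40 μM tryptophan plus 100 μM methyltetrahydropterin, pH 7.6 Tris/DTT/catalase, 15° C, 60 min.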
`COc1ccc(C2c3c(nc4cc(C(F)(F)F)ccn34)CCN2C(=O)COc2cc(-c3ccccc3)nn2C)cc1OC` (centres unmarked) [Example 3.1.24] had an IC50 of 157 nM.

The compound `CCc1cc(N2CCOCC2)ccc1OCC(=O)N1CCc2nc3cc(C(F)(F)F)ccn3c2C1c1ccc(OC)c(OC)c1` (centres unmarked) [Example 3.1.33, 1-(1-(3,4-dimethoxyphenyl)-7-(trifluoromethyl)-3,4-dihydroimidazo[1,2-a:5,4-c′]dipyridin-2(1H)-yl)-2-(2-ethyl-4-morpholinophenoxy)ethan-1-one] yielded an IC50 of 12 nM.

In the case of `O=C(COc1ccc(N2CCOCC2)cc1Cl)N1CCc2nc3ccccn3c2C1c1ncc(C2CC2)cc1F` (centres unmarked) [Example 1.12.2, 2-(2-chloro-4-morpholinophenoxy)-1-(1-(5-cyclopropyl-3-fluoropyridin-2-yl)-3,4-dihydroimidazo[1,2-a:5,4-c′]dipyridin-2(1H)-yl)ethan-1-one], half-maximal inhibition (IC50) required 23 nM.

In the case of `Cn1nc(OCC(=O)N2CCc3nc4cc(C(F)(F)F)ccn4c3C2c2ccccc2F)c(Cl)c1C(F)(F)F` (centres unmarked) [Example 3.35.3, 2-((4-chloro-1-methyl-5-(trifluoromethyl)-1H-pyrazol-3-yl)oxy)-1-(1-(2-fluorophenyl)-7-(trifluoromethyl)-3,4-dihydroimidazo[1,2-a:5,4-c′]dipyridin-2(1H)-yl)ethan-1-one], the IC50 stood at 338 nM.

`CS(=O)(=O)Nc1ccc(OC2(C(=O)N3CCc4nc5ccccn5c4C3c3ccc(Cl)cc3F)CC2)c(Cl)n1` (centres unmarked) [Example 1.4.16, N-(6-chloro-5-(1-(1-(4-chloro-2-fluorophenyl)-1,2,3,4-tetrahydroimidazo[1,2-a:5,4-c′]dipyridine-2-carbonyl)cyclopropoxy)pyridin-2-yl)methanesulfonamide] displayed an IC50 of 488 nM.

The compound `CCc1nc(C)ccc1OCC(=O)N1CCc2nc3cccnn3c2C1c1ncc(C2CC2)cc1F` (centres unmarked) [Example 16.2.2, 1-(9-(5-cyclopropyl-3-fluoropyridin-2-yl)-6,9-dihydropyrido[4′,3′:4,5]imidazo[1,2-b]pyridazin-8(7H)-yl)-2-((2-ethyl-6-methylpyridin-3-yl)oxy)ethan-1-one] came in with an IC50 of 128 nM.

`CC(C)(O)c1ccc(C2c3c(nc4ccccn34)CCN2C(=O)COc2ccc(C(=O)NC3CC3)nc2Cl)c(F)c1` (centres unmarked) [Example 1.16.1, 6-chloro-N-cyclopropyl-5-(2-(1-(2-fluoro-4-(2-hydroxypropan-2-yl)phenyl)-3,4-dihydroimidazo[1,2-a:5,4-c′]dipyridin-2(1H)-yl)-2-oxoethoxy)picolinamide]: it took 244 nM to reach half-maximal inhibition (IC50).

As to `COc1cc(F)c(C2c3c(nc4cc(C(F)(F)F)ccn34)CCN2C(=O)COc2ccc(CN3CCOCC3)cc2Cl)cc1OC` (centres unmarked) [Example 3.18.2, 2-(2-chloro-4-(morpholinomethyl)phenoxy)-1-(1-(2-fluoro-4,5-dimethoxyphenyl)-7-(trifluoromethyl)-3,4-dihydroimidazo[1,2-a:5,4-c′]dipyridin-2(1H)-yl)ethan-1-one], 5 nM corresponded to half-maximal inhibition (IC50).

`O=C(COc1ccc(CN2CCOCC2)cc1Cl)N1CCc2nc3cc(C(F)(F)F)ccn3c2C1c1ncc2ccccn12` (centres unmarked) [Example 3.43.1, 2-(2-chloro-4-(morpholinomethyl)phenoxy)-1-(1-(imidazo[1,5-a]pyridin-3-yl)-7-(trifluoromethyl)-3,4-dihydroimidazo[1,2-a:5,4-c′]dipyridin-2(1H)-yl)ethan-1-one] returned an IC50 of 130 nM.

In the case of `COc1ccc(C2c3c(nc4cc(C(F)(F)F)ccn34)CCN2C(=O)COc2ccc3ccccc3c2)cc1` (centres unmarked) [Example 3.24.1, 1-(1-(4-methoxyphenyl)-7-(trifluoromethyl)-3,4-dihydroimidazo[1,2-a:5,4-c′]dipyridin-2(1H)-yl)-2-(naphthalen-2-yloxy)ethan-1-one], 44 nM corresponded to half-maximal inhibition (IC50). Against the preceding compound, the IC50 is about 3-fold lower.

For the compound `CCc1cc(Cl)ccc1OCC(=O)N1CCc2nc3cc(C(F)(F)F)ccn3c2C1c1ccc(OC)c(OC)c1` (centres unmarked) [Example 3.1.29, 2-(4-chloro-2-ethylphenoxy)-1-(1-(3,4-dimethoxyphenyl)-7-(trifluoromethyl)-3,4-dihydroimidazo[1,2-a:5,4-c′]dipyridin-2(1H)-yl)ethan-1-one], the IC50 came to 64 nM. This IC50 and that of the compound before are within 1.5-fold of each other.

`COc1ccc(C2c3c(nc4cc(C(C)(C)C)ccn34)CCN2C(=O)COc2ccc(Cl)cc2Cl)cc1OC` (centres unmarked) [Example 5.1.1, 1-(7-(tert-butyl)-1-(3,4-dimethoxyphenyl)-3,4-dihydroimidazo[1,2-a:5,4-c′]dipyridin-2(1H)-yl)-2-(2,4-dichlorophenoxy)ethan-1-one]: it took 10 nM to reach half-maximal inhibition (IC50).

Take `COc1ccc(C2c3c(nc4cc(C(F)(F)F)ccn34)CCN2C(=O)COc2cccnc2Br)cc1OC` (centres unmarked) [Example 3.1.17, 2-((2-bromopyridin-3-yl)oxy)-1-(1-(3,4-dimethoxyphenyl)-7-(trifluoromethyl)-3,4-dihydroimidazo[1,2-a:5,4-c′]dipyridin-2(1H)-yl)ethan-1-one]: the IC50 worked out at 20 nM.

For the compound `COc1ccc(C2c3c(nc4cc(Cl)ccn34)CCN2C(=O)COc2ccc(N3CCOCC3)cc2Cl)cc1OC` (centres unmarked) [Example 2.1.7, 1-(7-chloro-1-(3,4-dimethoxyphenyl)-3,4-dihydroimidazo[1,2-a:5,4-c′]dipyridin-2(1H)-yl)-2-(2-chloro-4-morpholinophenoxy)ethan-1-one], the IC50 came to 34 nM.

`COc1ccc(C2c3c(nc4cc(C(F)(F)F)ccn34)CCN2C(=O)COc2cc(F)ccc2Cl)cc1OC` (centres unmarked) [Example 3.1.14]: half-maximal inhibition (IC50) required 103 nM. This IC50 is about 3-fold higher than that of the compound before.

In the case of `COc1ccc(C2c3c(nc4cc(C(F)(F)F)ccn34)CCN2C(=O)COc2cnccc2Cl)cc1OC` (centres unmarked) [Example 3.1.18], the IC50 was found to be 235 nM.

Compound `COc1ccc(C2c3c(nc4ccccn34)CCN2C(=O)COc2cc(C)ccc2C)cc1OC` (centres unmarked) [Example 1.1.1, 1-(1-(3,4-dimethoxyphenyl)-3,4-dihydroimidazo[1,2-a:5,4-c′]dipyridin-2(1H)-yl)-2-(2,5-dimethylphenoxy)ethan-1-one] had an IC50 of 418 nM.

Compound `COc1ccc(C2c3c(nc4cc(C(F)(F)F)ccn34)CCN2C(=O)COc2ccc3ccccc3c2)c(F)c1` (centres unmarked) [Example 3.3.1, 1-(1-(2-fluoro-4-methoxyphenyl)-7-(trifluoromethyl)-3,4-dihydroimidazo[1,2-a:5,4-c′]dipyridin-2(1H)-yl)-2-(naphthalen-2-yloxy)ethan-1-one] gave an IC50 of 5 nM.

For `O=C(COc1ccc(CN2CCOCC2)cc1Cl)N1CCc2nc3cc(C(F)(F)F)ccn3c2C1c1ccc(OC(F)F)cc1` (centres unmarked) [Example 3.26.2, 2-(2-chloro-4-(morpholinomethyl)phenoxy)-1-(1-(4-(difluoromethoxy)phenyl)-7-(trifluoromethyl)-3,4-dihydroimidazo[1,2-a:5,4-c′]dipyridin-2(1H)-yl)ethan-1-one], the IC50 was 54 nM.

Compound `O=C(COc1ccc(N2CCOCC2)nc1Cl)N1CCc2nc3ccccn3c2C1c1ccc(C2CC2)cc1F` (centres unmarked) [Example 1.5.2, 2-((2-chloro-6-morpholinopyridin-3-yl)oxy)-1-(1-(4-cyclopropyl-2-fluorophenyl)-3,4-dihydroimidazo[1,2-a:5,4-c′]dipyridin-2(1H)-yl)ethan-1-one] came in with an IC50 of 6 nM.

Compound `COc1cc(F)c(C2c3c(nc4cc(C(F)(F)F)ccn34)CCN2C(=O)COc2ccc3ccccc3c2)cc1OC` (centres unmarked) [Example 3.18.1, 1-(1-(2-fluoro-4,5-dimethoxyphenyl)-7-(trifluoromethyl)-3,4-dihydroimidazo[1,2-a:5,4-c′]dipyridin-2(1H)-yl)-2-(naphthalen-2-yloxy)ethan-1-one] came in with an IC50 of 5 nM.

Regarding `O=C(COc1cccnc1Cl)N1CCc2nc3ccccn3c2C1c1ccc(C2CC2)cc1F` (centres unmarked) [Example 1.5.4, 2-((2-chloropyridin-3-yl)oxy)-1-(1-(4-cyclopropyl-2-fluorophenyl)-3,4-dihydroimidazo[1,2-a:5,4-c′]dipyridin-2(1H)-yl)ethan-1-one], the IC50 was 34 nM.

The compound `COc1ccc(C2c3c(nc4cc(C(F)(F)F)ccn34)CCN2C(=O)COc2ccc3ccccc3c2)nc1` (centres unmarked) [Example 3.52.1, 1-(1-(5-methoxypyridin-2-yl)-7-(trifluoromethyl)-3,4-dihydroimidazo[1,2-a:5,4-c′]dipyridin-2(1H)-yl)-2-(naphthalen-2-yloxy)ethan-1-one] had an IC50 of 90 nM. Against the preceding compound, the IC50 is about 2.6-fold higher.

`COc1ccc(C2c3c(nc4cc(C(F)(F)F)ccn34)CCN2C(=O)COc2cccnc2Cl)cc1OC` (centres unmarked) [Example 3.1.15, 2-((2-chloropyridin-3-yl)oxy)-1-(1-(3,4-dimethoxyphenyl)-7-(trifluoromethyl)-3,4-dihydroimidazo[1,2-a:5,4-c′]dipyridin-2(1H)-yl)ethan-1-one]: half-maximal inhibition (IC50) was put at 67 nM.

Compound `O=C(COc1ccc(CN2CCOCC2)cc1Cl)N1CCc2nc3cc(C(F)(F)F)ccn3c2C1c1ccc(Cl)cn1` (centres unmarked) [Example 3.58.1, 2-(2-chloro-4-(morpholinomethyl)phenoxy)-1-(1-(5-chloropyridin-2-yl)-7-(trifluoromethyl)-3,4-dihydroimidazo[1,2-a:5,4-c′]dipyridin-2(1H)-yl)ethan-1-one] had a half-inhibitory concentration (IC50) of 30 nM. Against the preceding compound, the IC50 is about 2.2-fold lower.

Staying with this assay, now noted: Table 1; full length human TPH1, 40 μM L-tryptophan, 15° C., 60 minutes; mean if determined several times.
“1-(1-(4-(aminomethyl)phenyl)-7-(trifluoromethyl)-3,4-dihydroimidazo[1,2-a:5,4-c′]dipyridin-2(1H)-yl)-2-(naphthalen-2-yloxy)ethan-1-one [Example 3.31.1]” registered an IC50 of 73 nM.
